US11813257B2, “Methods of treating erythropoietic protoporphyria, X-linked protoporphyria, or congenital erythropoietic porphyria with glycine transport inhibitors” (Disc Medicine, Inc., priority 2020, dated 2023)

Columns and labels:
Type in all cases: cell-based
[1] = system: K562 clone-9 cells; assay: EPP cellular model: PPIX level by flow cytometry after 96 h compound incubation; details: for EC50: Homo sapiens, K562 clone-9 cells, 96 hours, flow cytometry, read-out: EPP cellular model (EC50 nM), inhibition of PPIX accumulation
Experimental: Knockout guide sequences were designed to target Exon3 of the Ferrochelatase gene.
K562 cells were cultured in Iscove's Modified Dulbecco's Medium (IMDM) supplemented with 10% fetal bovine serum (FBS), 1% penicillin/streptomycin (PS). CRISPR Cas9 RNP complex with guide RNA was electroporated in K562 cells. Genomic DNA from the pooled cells was isolated, amplified by PCR and sequenced by Sanger sequencing to determine knockout efficiency. Single-cell clones were isolated by fluorescent-assisted cell sorting (FACS). TA cloning and Sanger sequencing were used to confirm single-cell clones and genotypes. Five clones were selected (Clone IDs are: Clone 1-7; Clone 1-9; Clone 1-10, Clone 1-32; Clone 1-51; and K562 WT) for further characterization by western blot (FIG. 1) to determine FECH protein expression levels (Antibody: FECH Antibody Rabbit Polyclonal, Proteintech, 14466-1-AP) and flow cytometry to determine the PPIX levels (FIG. 2). LC/MS/MS confirmed the accumulation of PPIX in clone 1-9 compared to WT K562 cells (FIG. 3).
(§1) 900 μL of K562 clone-9 cells at 2×10^5 cells/mL in IMDM media with 10% FBS and 1% PS were plated into a 24-well plate. After 24-hour incubation, 100 μL of compound in DMSO/media was added in different concentration. The final concentration of DMSO was 0.1%. The compound was incubated for 96 hours at 37° C. Cell viability and cell count were measured by Vi-CELL XR Complete System. Finally, the effect of the compound on PPIX level was determined by flow cytometry.

[2] = system: human cord blood-CD34+ cells; assay: Human cord blood CD34+ cells transduced with FECH shRNA lentivirus, erythroid differentiation, flow cytometry; details: 100 nM, 9 days differentiation
Experimental: To investigate the effects of GlyT1 inhibitors in human hematopoietic stem cells with an EPP phenotype, lentiviral vectors expressing shRNA of FECH were constructed (Table 4) and transduced at 25 MOI into human cord blood-CD34+ cells purchased from Stemexpress.
Transduced CD34+ cells were differentiated in the presence of Bitopertin (100 nM) or DMSO control into erythroid cells for 9 days in StemSpan SFEM II media supplemented with StemSpan Erythroid Expansion Supplement. The erythroid cell antigen profile was analyzed using cytofluorimetric strategy with the following surface markers: CD71 (PE Mouse Anti-Human CD71, BD Biosciences), glycophoryin A (APC Mouse Anti-Human CD235a, BD Biosciences).

[3] = system: K562 clone-9 cells; assay: Cell viability and cell count by Vi-CELL XR Complete System in EPP cellular model; details: 96 hours, Vi-CELL XR
Experimental: as §1

[4] = system: clone 1-9 cells (EPP K562 cellular model); assay: LC/MS/MS of 5-ALA, PPIX and heme levels in the EPP K562 cellular model

SMILES | EC50 [1] | also measured
CN(CC[C@@H](Oc1ccc(C(F)(F)F)cc1)c1ccccc1)CC(=O)O [ORG-24598] | 5.6 nM | 
COc1ccc2c(c1)CC[C@H](CN(C)CC(=O)O)[C@@H]2c1ccccc1 [ORG-25935] | 14 nM | 
CN1C[C@@H]2[C@H](C1)[C@H]2CN(Cc1ccc(F)c(Cl)c1)C(=O)c1cn(C)cn1 [PF-03463275] | 46 nM | 
O=C(N[C@@H](c1ccccc1)[C@@H]1CCCCN1)c1cccc(C(F)(F)F)c1Cl [SSR-504734] | 306 nM | 

Further lines, with some results ahead:

EC50 [1] | SMILES | also measured
0.34 nM | CN(CC[C@@H](Oc1ccc(-c2ccccc2)cc1)c1ccc(F)cc1)CC(=O)O [ALX-5407] | 
7 nM | C[C@H](Oc1ccc(S(C)(=O)=O)cc1C(=O)N1CCN(c2ncc(C(F)(F)F)cc2F)CC1)C(F)(F)F [Bitopertin, bitopertin] | effect on erythroid cell surface markers (CD71, glycophoryin A) [2]: no negative effects; reduction of PPIX accumulation ([2]; FECH shRNA transduced CD34+ cells, flow cytometry): 60%; effect on cell viability [3]: no negative effects on cell viability; 5-aminolevulinic acid (5-ALA) level [4]: decreased; Heme formation [4]: minimal effect; PPIX level [4]: decreased
4.1 nM | CN(CCOc1ccc(-c2ccc3c(c2)OCO3)cc1C(C)(C)C)CC(=O)O [LY-2365109] | 
> 10000 nM | COc1cc(C(=O)NCC2(N(C)C)CCCC2)cc(OC)c1OCc1ccccc1 [ORG-25543] | inhibition of PPIX accumulation (in words) ([1]; EPP cellular model, highest tested concentration 10 μM for ORG-25543): did not show any inhibition
